For two compounds, Kd results are on record in article PMC4640232 (The Journal of Organic Chemistry, 2015).

Structures are written as SMILES.

In this assay the target is concanavalin A (ConA) (Canavalia ensiformis, UniProt P02866). Put plainly: isothermal titration calorimetry. It counts as binding. For orientation: ITC needs no label: the signal is the heat of the interaction.

Broadly, the Kd is the concentration at which binding is half-saturated.

Chain of concanavalin A (ConA) (P02866 164-281 limits assumed): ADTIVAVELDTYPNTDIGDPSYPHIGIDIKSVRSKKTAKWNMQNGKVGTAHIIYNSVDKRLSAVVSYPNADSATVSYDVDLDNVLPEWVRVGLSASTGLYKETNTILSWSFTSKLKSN
Chain of concanavalin A (ConA) (P02866 30-148 limits assumed): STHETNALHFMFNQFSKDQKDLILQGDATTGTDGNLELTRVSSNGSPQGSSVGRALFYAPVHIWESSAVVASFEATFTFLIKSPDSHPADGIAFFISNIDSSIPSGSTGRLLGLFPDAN

Take `CCCO[C@@H]1O[C@H](CO[C@H]2O[C@H](CO)[C@@H](O)[C@H](O)[C@@H]2O)[C@@H](O)[C@H](O[C@H]2O[C@H](CO)[C@@H](O)[C@H](O)[C@@H]2O)[C@@H]1O` [compound 12, n-Propyl 3,6-Di-O-(α-D-mannopyranosyl)-β-D-mannopyranoside]: the Kd is 3.27 µM.

Turning to `CO[C@H]1O[C@H](CO)[C@@H](O)[C@H](O)[C@@H]1O` [methyl α-mannoside], binding was characterised by a dissociation constant (Kd) of 4.65 µM.
